Experimental data: article PMC7228038 (Journal of medicinal chemistry, 2019)

What was measured:
DCN1-UBE2M interaction = DCN1-UBE2M interaction (Homo sapiens, UniProt Q96GG9); assay: biochemical; format: binding; settings: for Activity in TR-FRET binding assay, in words: maximum tested concentration 15 μM, values in Supplementary Tables
DCN4 = biological target: T1, DCN4 (Homo sapiens, UniProt Q92564); assay: Pulse-chase assay of NEDD8 transfer, DCN4 stimulated; format: biochemical; settings: 10 μM; NEDD8 transfer from UBE2M to CUL2
T1 sequence (Q92564 1-292): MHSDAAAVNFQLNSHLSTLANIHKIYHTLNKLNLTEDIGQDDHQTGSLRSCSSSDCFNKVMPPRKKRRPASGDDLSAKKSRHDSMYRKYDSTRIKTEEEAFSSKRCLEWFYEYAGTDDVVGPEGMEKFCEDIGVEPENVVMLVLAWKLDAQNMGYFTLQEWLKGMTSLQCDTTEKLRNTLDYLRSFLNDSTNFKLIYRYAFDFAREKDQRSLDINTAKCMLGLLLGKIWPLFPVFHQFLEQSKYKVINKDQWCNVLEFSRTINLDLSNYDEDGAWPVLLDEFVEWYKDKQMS

DCN3 = biological target: T2, DCN3 (Homo sapiens, UniProt Q8IWE4); assay: Pulse-chase assay of NEDD8 transfer, DCN3 stimulated; format: biochemical; settings: 10 μM; NEDD8 transfer from UBE2M to CUL2
T2 sequence (Q8IWE4 1-304): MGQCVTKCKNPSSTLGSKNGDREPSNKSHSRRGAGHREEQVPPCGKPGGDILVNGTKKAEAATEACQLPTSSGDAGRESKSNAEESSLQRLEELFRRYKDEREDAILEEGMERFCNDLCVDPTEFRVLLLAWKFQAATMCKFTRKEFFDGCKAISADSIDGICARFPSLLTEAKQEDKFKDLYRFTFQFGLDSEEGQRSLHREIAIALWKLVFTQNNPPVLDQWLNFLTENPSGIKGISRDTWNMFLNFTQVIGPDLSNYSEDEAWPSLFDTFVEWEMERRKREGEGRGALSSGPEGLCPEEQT

[1] = Oxidative metabolic stability in murine microsomes; settings: for CLint scaled at 0.8 µM: mouse, microsomes
DCN2 = DCN2 (Homo sapiens, UniProt Q6PH85); assay: Pulse-chase assay of NEDD8 transfer, DCN2 stimulated; format: biochemical; settings: 10 μM; NEDD8 transfer from UBE2M to CUL2
DCN5 = biological target: T3, DCN5 (Homo sapiens, UniProt Q9BTE7); assay: Pulse-chase assay of NEDD8 transfer, DCN5 stimulated; format: biochemical; settings: 10 μM; NEDD8 transfer from UBE2M to CUL2
T3 sequence (Q9BTE7 1-237): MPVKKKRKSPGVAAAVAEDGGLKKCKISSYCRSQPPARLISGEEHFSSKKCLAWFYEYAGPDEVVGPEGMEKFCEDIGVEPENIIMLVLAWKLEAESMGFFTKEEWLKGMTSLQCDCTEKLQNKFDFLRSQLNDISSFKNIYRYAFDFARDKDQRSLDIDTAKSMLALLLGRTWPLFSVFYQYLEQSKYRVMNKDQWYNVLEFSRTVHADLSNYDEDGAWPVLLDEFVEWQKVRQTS

[2] = test system: cullin neddylation in CAL33 cells; settings: 10 μM (MLN4924 1 μM), 48 hours, most pronounced on CUL1 and CUL3
[3] = test system: cullin neddylation in HCC95 cells; settings: 10 μM (MLN4924 1 μM), 48 hours, most pronounced on CUL1 and CUL3
HCC95 cells = settings: dose-response up to 30 μM, 5 hours

Sequence of DCN1-UBE2M interaction (Q96GG9 whole entry): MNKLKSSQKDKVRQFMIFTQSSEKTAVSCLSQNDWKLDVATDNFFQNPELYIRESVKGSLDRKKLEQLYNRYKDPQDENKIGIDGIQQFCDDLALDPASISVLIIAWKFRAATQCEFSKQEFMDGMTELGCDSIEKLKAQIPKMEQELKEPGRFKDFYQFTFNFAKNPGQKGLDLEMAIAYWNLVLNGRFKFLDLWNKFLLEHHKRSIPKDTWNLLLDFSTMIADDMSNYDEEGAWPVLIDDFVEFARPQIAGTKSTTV
Sequence of DCN2 (Q6PH85 whole entry): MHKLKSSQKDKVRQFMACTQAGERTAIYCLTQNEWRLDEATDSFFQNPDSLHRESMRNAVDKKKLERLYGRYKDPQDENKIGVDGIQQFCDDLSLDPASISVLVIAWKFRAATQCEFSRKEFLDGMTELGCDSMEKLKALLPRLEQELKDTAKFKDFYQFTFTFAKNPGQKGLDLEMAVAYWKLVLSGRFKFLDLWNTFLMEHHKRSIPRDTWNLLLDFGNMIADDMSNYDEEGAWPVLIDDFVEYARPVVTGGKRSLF

With `Cc1cccc(NC(=O)[C@@H]2C(=O)Nc3c(c(C)nn3-c3ccccc3)[C@@H]2c2ccc(F)cc2)c1` [Compound 128] as the compound, how does the “Activity in TR-FRET binding assay, in words” value (“Activity” below) (DCN1-UBE2M interaction) read?
The value was “not tolerated”.

With `CCN1C(=O)[C@@H](NC(=O)c2cccc(C)c2)[C@@H](c2ccc(F)cc2)c2c(C)nn(-c3ccccc3)c21` (relative stereo) [Compound 27, N-(rel-(4S,5S)-7-ethyl-4-(4-fluorophenyl)-3-methyl-6-oxo-1-phenyl-4,5,6,7-tetrahydro-1H-pyrazolo[3,4-b]pyridin-5-yl)-3-methylbenzamide] as the compound, how does the “Inhibition of DCN4 stimulated cullin neddylation (pulse-chase)” value (DCN4) read?
Its value is “not inhibited”.

And the “Inhibition of DCN3 stimulated cullin neddylation (pulse-chase)” value (DCN3)?
The value was “not inhibited”.

What about the CLint scaled at 0.8 µM [1] of the same compound?
The CLint scaled at 0.8 µM was 44.9 ± 3.7 mL/min/kg.

And the “Inhibition of DCN2 stimulated cullin neddylation (pulse-chase)” value (DCN2)?
The value was “inhibiting”.

What about the “Inhibition of DCN5 stimulated cullin neddylation (pulse-chase)” value (DCN5) of the same compound?
The value was “not inhibited”.

With `Cc1cccc(C(=O)N[C@@H]2C(=O)Nc3c(c(C)nn3-c3ccccc3)[C@@H]2c2ccc(F)cc2)c1` (racemic) [Compound 3] as the compound, how does the CLint scaled at 0.8 µM [1] read?
Its CLint scaled at 0.8 µM is 50.3 ± 5 mL/min/kg.

And the “Murine microsomal stability compared with that previously reported for NAcM-OPT” value ([1]; murine microsomes, relative to NAcM-OPT)?
The value was ≤ 2 fold.

For `Cc1ccc([C@H]2c3c(C)nn(-c4ccccc4)c3NC(=O)[C@H]2NC(=O)c2cccc(C)c2)cc1` (relative stereo) [Compound 1, 3-methyl-N-(rel-(4S,5S)-3-methyl-6-oxo-1-phenyl-4-(p-tolyl)-4,5,6,7-tetrahydro-1H-pyrazolo[3,4-b]pyridin-5-yl)benzamide], which CLint scaled at 0.8 µM [1] is on record?
Its CLint scaled at 0.8 µM is 160 ± 5 mL/min/kg.

With `Cc1nn(-c2ccccc2)c2c1[C@H](c1ccc(F)cc1)[C@H](NC(=O)c1cccc(C(F)(F)F)c1)C(=O)N2` [Compound 11] as the compound, how does the IC50 (DCN1-UBE2M interaction) read?
The IC50 was 3.5 ± 0.5 µM.

With `NS(=O)(=O)OC[C@@H]1C[C@@H](n2ccc3c(N[C@H]4CCc5ccccc54)ncnc32)C[C@@H]1O` [MLN4924] as the compound, how does the “Inhibition of steady-state cullin neddylation (immunoblot), CAL33” value [2] read?
Its value is “complete blockade of neddylation”.

What about the “Inhibition of steady-state cullin neddylation (immunoblot), HCC95” value [3] of the same compound?
Its value is “complete blockade of neddylation”.

Which “Effect on reactive oxygen species (DCFDA)” value (HCC95 cells) does the source give for `Cc1cccc(C(=O)N[C@H]2C(=O)Nc3c(c(C)nn3-c3ccccc3)[C@@H]2c2ccc(F)cc2)c1` (racemic) [Compound 87, N-((4S,5R)-4-(4-fluorophenyl)-3-methyl-6-oxo-1-phenyl-4,5,6,7-tetrahydro-1H-pyrazolo[3,4-b]pyridin-5-yl)-3-methylbenzamide] here?
The value was “neither 27, 87, nor NAcM-OPT have any measurable effects on reactive oxygen species”.

What about the “Activity” value (DCN1-UBE2M interaction) of the same compound?
The value was “inactive”.

With `CCCCN1CCC(N(Cc2ccccc2)C(=O)Nc2ccc(Cl)c(Cl)c2)CC1` [NAcM-OPT, reference compound] as the compound, how does the “Effect on reactive oxygen species (DCFDA)” value (HCC95 cells) read?
Its value is “neither 27, 87, nor NAcM-OPT have any measurable effects on reactive oxygen species”.

With `Cc1nn(-c2ccccc2)c2c1[C@H](c1ccc(F)cc1)[C@H](C(=O)Nc1ccc(Cl)c(Cl)c1)C(=O)N2` [Compound 131] as the compound, how does the “Activity” value (DCN1-UBE2M interaction) read?
Its value is “not tolerated”.

Which CLint scaled at 0.8 µM [1] does the source give for `Cc1cccc(C(=O)N[C@@H]2C(=O)Nc3c(c(C)nn3C3CCCC3)[C@@H]2c2ccc(F)cc2)c1` (racemic) [Compound 24] here?
The CLint scaled at 0.8 µM was 116 ± 10.7 mL/min/kg.

What does the source list for `CCn1nc(C)c2c1NC(=O)[C@@H](NC(=O)c1cccc(C)c1)[C@H]2c1ccc(F)cc1` (racemic) [Compound 65]?
CLint scaled at 0.8 µM [1]: 89.7 ± 4.7 mL/min/kg; Activity in TR-FRET binding assay, in words (DCN1-UBE2M interaction): roughly equipotent to the phenyl derivative (3)
